Assay results published in PubChem BioAssay (NCI).
Where “and” joins values, the source holds several entries; their conditions need not be identical. Equal entries are not always repeated.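 All cell lines were grown in 96-well plates and treated with compound for 48 hours. The concentration for 50% growth inhibition is given as GI50. TGI marks complete inhibition of growth.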

What was measured:
Experiment in all cases: NCI anticancer screen, dose series, 48 h
SW-620 colon = system: SW-620 colon
M14 melanoma = system: M14 melanoma
TK-10 renal = system: TK-10 renal
HOP-62 NSCLC = system: HOP-62 NSCLC
ACHN renal = system: ACHN renal
SF-268 CNS = system: SF-268 CNS
SN12C renal = system: SN12C renal
MALME-3M melanoma = system: MALME-3M melanoma
SNB-75 CNS = system: SNB-75 CNS
SR leukemia = system: SR leukemia

Row | Compound | TGI (SW-620 colon) | TGI (M14 melanoma) | TGI (TK-10 renal) | TGI (HOP-62 NSCLC) | TGI (ACHN renal) | TGI (SF-268 CNS) | TGI (SN12C renal) [µM] | TGI (MALME-3M melanoma) | TGI (SNB-75 CNS) | TGI (SR leukemia) [µM] | GI50 (MALME-3M melanoma) [µM] | GI50 (TK-10 renal) [µM] | GI50 (SNB-75 CNS) [µM] | GI50 (ACHN renal) [µM] | GI50 (SF-268 CNS) [µM] | GI50 (SW-620 colon) [µM] | GI50 (M14 melanoma) [µM] | GI50 (HOP-62 NSCLC) [µM] | GI50 (SN12C renal) [µM] | GI50 (SR leukemia) [µM]
1 | CC1=CC(=O)c2ccc(C)cc2C1=O | 30.4 µM | 30.8 µM | 34 µM | 32 µM | 21 µM | 38.4 µM | 36.6 | – | – | – | – | – | – | – | – | – | – | – | – | –
2 | CCOC(=O)C(C(=O)OCC)=c1sc(=C(C(=O)OCC)C(=O)OCC)s1 | > 100 µM | > 100 µM | > 100 µM | > 100 µM | > 100 µM | > 100 µM | > 100 | > 100 µM | > 100 µM | – | – | – | – | – | – | – | – | – | – | –
3 | CC1=Nc2ccccc2C12C(c1ccccc1)C(c1ccccc1)C(=O)N1c3ccccc3CC12 (stereo unspecified) | > 100 µM | > 100 µM | > 100 µM | > 100 µM | > 100 µM | – | > 100 | > 100 µM | > 100 µM | > 100 | – | – | – | – | – | – | – | – | – | –
4 | CC(C)c1ccc2nc3ccc(C(=O)NCCN4CCN(c5ccccc5)CC4)cn3c(=O)c2c1 | > 100 µM | > 100 µM | > 100 µM | > 100 µM | – | > 100 µM | – | – | – | – | – | – | – | – | – | – | – | – | – | –
5 | C=C[C@H]1C=Cc2c(OC)cccc2[C@@H]1COP1(=S)NC(C)C(c2ccccc2)O1 (stereo partly specified) | > 100 µM | > 100 µM | > 100 µM | > 100 µM | – | > 100 µM | > 100 | – | > 100 µM | – | – | – | – | – | – | – | – | – | – | –
6 | CCCCCCNCCCNc1c2ccccc2nc2cccc([N+](=O)[O-])c12 | 0.115 µM and 0.734 µM | 0.0247 µM and 0.0205 µM | 0.787 µM and 0.512 µM | 0.0773 µM and 0.0374 µM | 0.0446 µM and 0.0858 µM | 0.0522 µM and 0.405 µM | 0.12 | 0.0628 µM and 0.0572 µM | 0.181 µM and 0.237 µM | – | 0.0168 | 0.0705 | 0.065 | 0.0151 | 0.038 | – | – | – | – | –
7 | CN1CCN(CC(=O)N2c3cccc4cccc(c34)N(C(=O)CN3CCN(C)CC3)C2c2cn(-c3ccccc3)nc2-c2cccc([N+](=O)[O-])c2)CC1 | 4.37 µM | 3.34 µM | 5.61 µM | 5.52 µM | 5.33 µM | 4.95 µM | 4.28 | 3.49 µM | 2.71 µM | – | 1.85 | 2.42 | 1.32 | 2.22 | 1.95 | 1.91 | 1.75 | 2.02 | 1.99 | –
8 | COC(=O)[C@@]12C=CC(=O)[C@H]3C[C@@H](C(C(C)C)C1)[C@]32OC (stereo partly specified) | > 100 µM | > 100 µM | > 100 µM | > 100 µM | > 100 µM | > 100 µM | > 100 | > 100 µM | > 100 µM | – | – | – | – | – | – | – | – | – | – | –
9 | C[C@@H]1OCC2(CCN(c3cnc(Sc4ccnc(N)c4Cl)c(N)n3)CC2)[C@@H]1N | > 100 µM | > 100 µM | > 100 µM | > 100 µM | > 100 µM | > 100 µM | > 100 | > 100 µM | > 100 µM | – | > 100 | 0.253 | 15.1 | 4.71 | 27.7 | 88.7 | > 100 | 14.2 | 27.7 | –
10 | COc1cc2c3c(n(CCCN4CCCC(O)C4)c(=O)c2cc1OC)-c1cc2c(cc1C3=O)OCO2 (stereo unspecified) | 7.61 µM | 0.972 µM | 14.2 µM | 0.0746 µM | 0.32 µM | 1.94 µM | 0.964 | 14.8 µM | 1.57 µM | – | 5.71 | 6.38 | 0.546 | < 0.005 | 0.593 | 0.047 | 0.0297 | 0.0194 | 0.162 | –
11 | C=C1C(=O)O[C@H]2[C@H]1CC/C(COC(=O)NCc1cc(OC)cc(OC)c1)=C\CC[C@@]1(C)O[C@@H]21 | 3.97 µM | 3.87 µM | 3.18 µM | 11.7 µM | 2.8 µM | 9.9 µM | – | 3.83 µM | 12.7 µM | 2.91 | 1.86 | 1.66 | 1.99 | 1.29 | 2.46 | 1.12 | 1.64 | 3.06 | – | 0.32
12 | COc1ccc(C(c2cc3c(cc2O)OCO3)N2CCOCC2)cc1OC (stereo unspecified) | 14.4 µM | 24.9 µM | 26.1 µM | 29.1 µM | 23.5 µM | 25.5 µM | 22.3 | 25.7 µM | 31.8 µM | – | – | – | – | – | – | – | – | – | – | –
13 | Cc1ccc(NC(=O)c2cc3ccccc3cc2O)c(C)c1.Cc1ccc(NC(=O)c2cc3ccccc3cc2[O-])c(C)c1.[Ni+2] | 36.8 µM | 13.9 µM | 17 µM | 17 µM | – | 17.2 µM | 15.1 | 14.3 µM | 6.7 µM | – | 3.4 | 4.66 | 2.78 | 4.22 | 3.52 | 4.24 | 4.31 | 3.87 | 3.12 | –
14 | Nc1ccccc1C#Cc1ccccc1C#Cc1cnccn1 | 31.7 µM | 29.5 µM | – | 54.9 µM | 46.2 µM | 25.1 µM | 30 | – | 84.8 µM | – | – | – | 24.6 | 24.1 | 11.7 | 17.3 | 16 | 21.1 | 15.2 | –
15 | CC(=O)[O][Bi]([c]1ccccc1)[c]1ccccc1 | 5.45 µM | 24.5 µM | 6.38 µM | 33.8 µM | 24.4 µM | 29.9 µM | 23.6 | – | 30.2 µM | – | – | 1.85 | 16.4 | 11.8 | 14.4 | 2.27 | 11.4 | 17 | 10.9 | –
16 | Nc1c2ccccc2nc2ccccc12 (tested in a mixture with another compound) | 10.1 µM | 3.92 µM | 5.34 µM | 4.01 µM | 8.72 µM | 6.08 µM | 12.2 | 5.28 µM | 8.44 µM | – | 2.34 | 1.97 | 3.18 | 0.779 | 2.13 | 1.44 | 1.87 | 1.54 | 1.53 | –
